Assay results reported in ChEMBL document CHEMBL1201862, “PubChem BioAssay data set” (2004).
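Cultured in 96-well plates, cells were exposed to test compound for 48 hours across five concentrations. Abbreviation: GI50, concentration required for 50% inhibition of growth.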 Active and inactive are the calls of the source. No stated cut-off is given here; in the data, active = GI50 up to about 1.1 µM and inactive = higher.

How the values were obtained:
Assay in all cases: growth of human tumour cells (NCI), 48 h
[1] = system: OVCAR-8
[2] = system: UACC-62
[3] = system: TK-10
[4] = system: NCI-H522
[5] = system: HL-60
[6] = system: UO-31
[7] = system: COLO 205
[8] = system: A498
[9] = system: NCI-H226
[10] = system: OVCAR-4
[11] = system: SF-268
[12] = system: NCI-H23
[13] = system: LOX IMVI
[14] = system: K562
[15] = system: Malme-3M
[16] = system: SNB-19
[17] = system: SR

SMILES	GI50 [1]	GI50 [2]	GI50 [3]	GI50 [4]	GI50 [5]	GI50 [6]	GI50 [7]	GI50 [8]	GI50 [9]	GI50 [10]	GI50 [11]	GI50 [12]	GI50 [13]	GI50 [14]	GI50 [15]	GI50 [16]	GI50 [17]
Cc1cccc(C)c1N1C(=O)C(=O)C(c2nc3ccccc3s2)/C(=N\N)C1=O (centres undefined)	> 100 µM (inactive)	77.4 µM (inactive)	> 100 µM (inactive)	39.4 µM (inactive)	36.3 µM (inactive)	> 100 µM (inactive)	> 100 µM (inactive)	> 100 µM (inactive)	> 100 µM (inactive)	> 100 µM (inactive)	> 100 µM (inactive)	> 100 µM (inactive)	> 100 µM (inactive)	31.8 µM (inactive)	> 100 µM (inactive)	> 100 µM (inactive)	–
CN(C)CCC[N+]1=Nc2cccc3cccc(c23)N1	46.6 µM (inactive)	34.1 µM (inactive)	59.4 µM (inactive)	38 µM (inactive)	18.2 µM (inactive)	96.4 µM (inactive)	> 10 µM (inactive)	27.4 µM (inactive)	> 100 µM (inactive)	47.1 µM (inactive)	> 100 µM (inactive)	> 100 µM (inactive)	31.9 µM (inactive)	31.8 µM (inactive)	> 100 µM (inactive)	> 100 µM (inactive)	16.9 µM (inactive)
CCOC(=O)C1N(S(=O)(=O)c2ccc(C)cc2)CCC12c1ccccc1NC2c1ccc(OC)c(OC)c1 (centres undefined)	> 100 µM (inactive)	> 100 µM (inactive)	> 100 µM (inactive)	> 100 µM (inactive)	27.7 µM (inactive)	> 100 µM (inactive)	> 100 µM (inactive)	> 100 µM (inactive)	> 100 µM (inactive)	> 100 µM (inactive)	> 100 µM (inactive)	> 100 µM (inactive)	> 100 µM (inactive)	34.2 µM (inactive)	> 100 µM (inactive)	> 100 µM (inactive)	22 µM (inactive)
CCCC(=O)C(CC)/C(CCC(=O)N(Cc1ccccc1)Cc1ccccc1)=N/NC(=O)C[N+](C)(C)C (centres undefined)	> 100 µM (inactive)	–	–	> 100 µM (inactive)	> 100 µM (inactive)	> 100 µM (inactive)	> 100 µM (inactive)	> 100 µM (inactive)	> 100 µM (inactive)	> 100 µM (inactive)	> 100 µM (inactive)	> 100 µM (inactive)	–	> 100 µM (inactive)	> 100 µM (inactive)	> 100 µM (inactive)	> 100 µM (inactive)
CC(C)=CC(=O)CC(=O)C(=O)NCCNC(=O)C(=O)CC(=O)C=C(C)C	> 50 µM (inactive)	> 50 µM (inactive)	> 50 µM (inactive)	–	–	> 50 µM (inactive)	> 50 µM (inactive)	> 50 µM (inactive)	> 50 µM (inactive)	> 50 µM (inactive)	> 50 µM (inactive)	> 50 µM (inactive)	> 50 µM (inactive)	–	> 50 µM (inactive)	> 50 µM (inactive)	–
COC(=O)c1nn(-c2ccccc2)c(=O)cc1N=[N+]=[N-]	> 100 µM (inactive)	> 100 µM (inactive)	> 100 µM (inactive)	> 100 µM (inactive)	> 100 µM (inactive)	> 100 µM (inactive)	99.5 µM (inactive)	94 µM (inactive)	> 100 µM (inactive)	> 100 µM (inactive)	> 100 µM (inactive)	> 100 µM (inactive)	> 100 µM (inactive)	> 100 µM (inactive)	> 100 µM (inactive)	> 100 µM (inactive)	> 100 µM (inactive)
O=C(Nc1nc2ncn(CCO)c2c(=S)[nH]1)c1ccccc1	> 100 µM (inactive)	> 100 µM (inactive)	> 100 µM (inactive)	> 100 µM (inactive)	> 100 µM (inactive)	> 100 µM (inactive)	> 100 µM (inactive)	> 100 µM (inactive)	> 100 µM (inactive)	> 100 µM (inactive)	> 100 µM (inactive)	–	> 100 µM (inactive)	> 100 µM (inactive)	> 100 µM (inactive)	> 100 µM (inactive)	> 100 µM (inactive)
Cc1ccc(C2=NO[C@@H]3C(=O)N(c4ccc(Cc5ccc(N6C(=O)[C@H]7C(c8ccc(C)cc8)=NO[C@H]7C6=O)cc5)cc4)C(=O)[C@H]23)cc1	> 100 µM (inactive)	> 100 µM (inactive)	> 100 µM (inactive)	–	> 100 µM (inactive)	> 100 µM (inactive)	> 100 µM (inactive)	> 100 µM (inactive)	> 100 µM (inactive)	> 100 µM (inactive)	> 100 µM (inactive)	> 100 µM (inactive)	> 100 µM (inactive)	> 100 µM (inactive)	> 100 µM (inactive)	–	–
O=C1NC2=C(CCCCC/C2=N\O)C12CCCCCC2	> 100 µM (inactive)	> 100 µM (inactive)	> 100 µM (inactive)	> 100 µM (inactive)	> 100 µM (inactive)	> 100 µM (inactive)	> 100 µM (inactive)	> 100 µM (inactive)	–	> 100 µM (inactive)	> 100 µM (inactive)	> 100 µM (inactive)	> 100 µM (inactive)	> 100 µM (inactive)	> 100 µM (inactive)	> 100 µM (inactive)	> 100 µM (inactive)
C/C(=C1/CCCC2(N=NCC2c2ccccc2)C1=O)c1ccccc1 (centres undefined)	21.3 µM (inactive)	16.3 µM (inactive)	42.7 µM (inactive)	14.8 µM (inactive)	8.95 µM (inactive)	20.9 µM (inactive)	16.5 µM (inactive)	–	16 µM (inactive)	30.7 µM (inactive)	65.3 µM (inactive)	16.6 µM (inactive)	32.8 µM (inactive)	12 µM (inactive)	21 µM (inactive)	66.4 µM (inactive)	14 µM (inactive)
Cc1ccccc1Cn1nc2ccccc2cc1=O	> 100 µM (inactive)	> 100 µM (inactive)	> 100 µM (inactive)	–	–	> 100 µM (inactive)	> 100 µM (inactive)	> 100 µM (inactive)	> 100 µM (inactive)	> 100 µM (inactive)	> 100 µM (inactive)	> 100 µM (inactive)	> 100 µM (inactive)	> 100 µM (inactive)	> 100 µM (inactive)	> 100 µM (inactive)	–
Fc1cccc2c1cc1ccc3cccc4ccc2c1c34	> 100 µM (inactive)	> 100 µM (inactive)	60.1 µM (inactive)	> 100 µM (inactive)	> 100 µM (inactive)	> 100 µM (inactive)	> 100 µM (inactive)	> 100 µM (inactive)	> 100 µM (inactive)	> 100 µM (inactive)	> 100 µM (inactive)	> 100 µM (inactive)	> 100 µM (inactive)	> 100 µM (inactive)	> 100 µM (inactive)	> 100 µM (inactive)	60.5 µM (inactive)
C/C(=N\NC(N)=S)c1ccc(C)cc1C	> 100 µM (inactive)	38.9 µM (inactive)	> 100 µM (inactive)	–	36 µM (inactive)	82.6 µM (inactive)	55.8 µM (inactive)	> 100 µM (inactive)	> 100 µM (inactive)	84.5 µM (inactive)	–	> 100 µM (inactive)	> 100 µM (inactive)	81.5 µM (inactive)	> 100 µM (inactive)	–	< 0.01 µM (active)
C1OC1CN1CCN(CC2CO2)CC1 (centres undefined)	> 75.7 µM (inactive)	8.87 µM (inactive)	> 100 µM (inactive)	> 100 µM (inactive)	4.85 µM (inactive)	97.5 µM (inactive)	> 100 µM (inactive)	> 100 µM (inactive)	> 100 µM (inactive)	> 100 µM (inactive)	22.8 µM (inactive)	22.1 µM (inactive)	44.1 µM (inactive)	52.5 µM (inactive)	> 100 µM (inactive)	> 100 µM (inactive)	2.42 µM (inactive)
CC(C)NC(C)C(C)c1ccccc1 (centres undefined)	> 100 µM (inactive)	> 100 µM (inactive)	> 100 µM (inactive)	> 100 µM (inactive)	–	> 100 µM (inactive)	> 100 µM (inactive)	> 100 µM (inactive)	> 100 µM (inactive)	> 100 µM (inactive)	> 100 µM (inactive)	> 100 µM (inactive)	> 100 µM (inactive)	> 100 µM (inactive)	> 100 µM (inactive)	> 100 µM (inactive)	–
CCCC(=O)Nc1ccc(O)c2c1C1CCCCCC21 (centres undefined)	> 100 µM (inactive)	64 µM (inactive)	> 100 µM (inactive)	75.5 µM (inactive)	> 100 µM (inactive)	63.2 µM (inactive)	> 100 µM (inactive)	–	> 100 µM (inactive)	68.5 µM (inactive)	> 100 µM (inactive)	> 100 µM (inactive)	> 100 µM (inactive)	64.9 µM (inactive)	> 100 µM (inactive)	> 100 µM (inactive)	82.2 µM (inactive)
COC1[C@H](NC(=O)OC(C)(C)C)C(=O)N1Cc1ccccc1 (some centres undefined)	> 100 µM (inactive)	> 100 µM (inactive)	> 100 µM (inactive)	–	> 100 µM (inactive)	> 100 µM (inactive)	> 100 µM (inactive)	9.53 µM (inactive)	> 100 µM (inactive)	> 100 µM (inactive)	> 100 µM (inactive)	> 100 µM (inactive)	> 100 µM (inactive)	> 100 µM (inactive)	> 100 µM (inactive)	> 100 µM (inactive)	–
